# Target: human ACC2 (Homo sapiens (Human), UniProt O00763)
# Experiment: ACC2 assay, spectrophotometric 384 well assay (NADH-linked, coupled lactate dehydrogenase/pyruvate kinase reaction)
# Format: biochemical
# Conditions: hACC2 construct lacking the 128 N-terminal amino acids; 25° C., 340 nm over 15 minutes
# Protocol: Spectrophotometric 384 Well Assay
# Malonyl CoA formation by acetyl CoA carboxylases is stoichometrically linked to the consumption of ATP. ACC2 activity is measured in a NADH-linked kinetic method measuring ADP generated during the ACC reaction using a coupled lactate dehydrogenase/pyruvate kinase reaction.
# For biological testing, a human ACC2 construct which lacks the 128 amino acids at the N-terminus for increased solubility (nt 385-6966 in Genbank entry AJ575592) is cloned. The protein is then expressed in insect cells using a baculoviral expression system. Protein purification is performed by anion exchange.
# All compounds are dissolved in dimethyl sulfoxide (DMSO) to a concentration of 10 mM.
# Assay reactions are then carried out in 384-well plates, with hACC2 in an appropriate dilution and at final assay concentrations (f.c.) of 100 mM Tris (pH 7.5), 10 mM trisodium citrate, 25 mM KHCO3, 10 mM MgCl2, 0.5 mg/mL BSA, 3.75 mM reduced L-glutathione, 15 U/mL lactate dehydrogenase, 0.5 mM phosphoenolpyruvate, 15 U/mL pyruvate kinase, compounds at different concentrations at final DMSO concentrations of 1%.
# The enzymatic reaction is then started by addition of a mixture of NADH, acetyl Coenzyme A (both 200 μM f.c.) and ATP (500 uM f.c.). The decrease of the optical density (slope S) is then determined at 25° C. at a wavelength of 340 nm over 15 minutes in a spectrophotometric reader.
# Each assay microtiter plate contains wells with vehicle instead of compound as controls for the non-inhibited enzyme (100% CTL; ‘HIGH’) and wells without acetyl-CoA as controls for non-specific NADH degradation (0% CTL; ‘LOW’).
# The slope S is used for calculation of % CTL=(S(compound)−S(‘LOW’))/(S(‘HIGH’)−S(‘LOW’))*100. Compounds will give values between 100% CTL (no inhibition) and 0% CTL (complete inhibition).
# For IC50 value determination, the sample slope in the presence of the test compound after subtraction of the low controls (S(compound)−S(‘LOW’)) are used. An IC50 value is derived from the compound slopes at different dosages after subtraction of the low controls (S(compound)−S(‘LOW’)) by non-linear regression curve fitting (equation y=(A+((B−A)/(1+((C/x)^D))))).
# human ACC2, sequence (O00763 129-2458): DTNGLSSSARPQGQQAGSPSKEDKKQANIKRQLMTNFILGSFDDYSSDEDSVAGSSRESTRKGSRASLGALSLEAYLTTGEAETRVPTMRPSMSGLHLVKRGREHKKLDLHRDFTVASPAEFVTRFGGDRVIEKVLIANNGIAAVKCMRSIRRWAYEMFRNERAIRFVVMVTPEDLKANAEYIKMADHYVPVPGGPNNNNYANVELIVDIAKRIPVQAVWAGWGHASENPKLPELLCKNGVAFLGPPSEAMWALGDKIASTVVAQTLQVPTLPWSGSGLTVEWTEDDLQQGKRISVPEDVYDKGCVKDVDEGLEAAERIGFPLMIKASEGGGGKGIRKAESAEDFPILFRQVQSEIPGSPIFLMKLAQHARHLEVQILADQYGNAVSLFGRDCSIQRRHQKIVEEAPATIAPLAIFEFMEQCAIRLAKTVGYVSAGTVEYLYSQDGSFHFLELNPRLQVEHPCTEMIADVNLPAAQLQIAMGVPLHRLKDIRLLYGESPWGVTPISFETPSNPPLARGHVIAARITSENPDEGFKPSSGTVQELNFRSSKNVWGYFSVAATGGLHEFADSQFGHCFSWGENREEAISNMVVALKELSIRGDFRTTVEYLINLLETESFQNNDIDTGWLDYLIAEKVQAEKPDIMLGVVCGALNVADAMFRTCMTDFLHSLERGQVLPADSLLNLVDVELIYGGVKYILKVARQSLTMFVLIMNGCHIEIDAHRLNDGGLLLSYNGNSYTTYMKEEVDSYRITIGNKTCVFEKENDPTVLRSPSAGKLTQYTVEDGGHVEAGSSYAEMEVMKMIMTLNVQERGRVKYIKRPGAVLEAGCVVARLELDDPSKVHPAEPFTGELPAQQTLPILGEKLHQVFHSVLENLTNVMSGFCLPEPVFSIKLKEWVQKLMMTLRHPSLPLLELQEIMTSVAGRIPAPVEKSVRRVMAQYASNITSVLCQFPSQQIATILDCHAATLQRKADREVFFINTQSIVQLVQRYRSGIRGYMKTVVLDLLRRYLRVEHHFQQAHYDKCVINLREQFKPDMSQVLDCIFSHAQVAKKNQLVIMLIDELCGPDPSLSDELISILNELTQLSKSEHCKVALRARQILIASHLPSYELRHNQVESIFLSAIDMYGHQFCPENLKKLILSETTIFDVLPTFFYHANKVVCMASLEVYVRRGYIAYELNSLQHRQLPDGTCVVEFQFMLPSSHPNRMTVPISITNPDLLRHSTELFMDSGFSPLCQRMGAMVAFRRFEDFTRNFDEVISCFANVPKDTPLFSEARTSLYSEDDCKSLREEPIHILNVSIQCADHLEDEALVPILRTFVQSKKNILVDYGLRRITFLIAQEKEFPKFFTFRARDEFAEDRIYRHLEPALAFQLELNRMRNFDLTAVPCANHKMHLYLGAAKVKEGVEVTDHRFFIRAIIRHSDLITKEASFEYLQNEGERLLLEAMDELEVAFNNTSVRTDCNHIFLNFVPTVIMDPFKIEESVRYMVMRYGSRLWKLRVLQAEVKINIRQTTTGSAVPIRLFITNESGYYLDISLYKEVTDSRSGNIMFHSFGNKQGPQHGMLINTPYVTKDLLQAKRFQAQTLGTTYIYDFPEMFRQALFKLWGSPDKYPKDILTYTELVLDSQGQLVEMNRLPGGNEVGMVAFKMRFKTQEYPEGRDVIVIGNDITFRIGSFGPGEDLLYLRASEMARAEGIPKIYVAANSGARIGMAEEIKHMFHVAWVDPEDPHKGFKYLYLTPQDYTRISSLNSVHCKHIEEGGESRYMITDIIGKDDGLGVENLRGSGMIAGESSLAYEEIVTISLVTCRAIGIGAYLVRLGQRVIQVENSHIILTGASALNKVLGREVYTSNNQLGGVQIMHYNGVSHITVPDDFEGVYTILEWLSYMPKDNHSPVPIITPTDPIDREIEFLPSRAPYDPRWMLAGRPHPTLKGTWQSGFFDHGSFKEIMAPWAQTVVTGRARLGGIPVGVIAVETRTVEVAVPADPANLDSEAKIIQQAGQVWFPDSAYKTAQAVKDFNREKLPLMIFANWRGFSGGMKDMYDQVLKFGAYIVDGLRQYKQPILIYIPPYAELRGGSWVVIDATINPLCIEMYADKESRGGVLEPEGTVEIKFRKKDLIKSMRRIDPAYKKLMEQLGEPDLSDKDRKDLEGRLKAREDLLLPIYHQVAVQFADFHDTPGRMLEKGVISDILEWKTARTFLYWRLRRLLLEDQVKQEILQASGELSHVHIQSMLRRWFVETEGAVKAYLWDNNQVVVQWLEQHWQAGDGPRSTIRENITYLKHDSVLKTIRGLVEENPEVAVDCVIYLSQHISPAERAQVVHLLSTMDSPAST
row,SMILES,IC50 [nM]
1,COc1c(F)cc(C#Cc2ccc(CC(C)NC(C)=O)cc2)cc1F (stereo not shown) [Example 3.4],560
2,CC(=O)NC(C)Cc1ccc(C#Cc2ccc3cc[nH]c3c2)cc1 (stereo not shown) [Example 3.5],660
3,CC(=O)NC(C)Cc1ccc(C#Cc2ccc(Cl)c(C#N)c2)cc1 (stereo not shown) [Example 3.6],2300
4,CC(=O)NC(C)Cc1ccc(C#Cc2cc3c(cc2C#N)OCO3)cc1 (stereo not shown) [Example 3.7],10600
5,COc1ccc(Cl)c(C#Cc2ccc(CC(C)NC(C)=O)cc2)c1 (stereo not shown) [Example 3.8],690
6,COC(=O)c1cc(C#Cc2ccc(CC(C)NC(C)=O)cc2)ccn1 (stereo not shown) [Example 3.10],4500
7,COc1ccc(C#Cc2ccc(CC(C)NC(C)=O)cc2)nc1 (stereo not shown) [Example 3.11],4300
8,COc1ccc(C#Cc2ccc(CC(C)NC(C)=O)cc2)c(C#N)c1 (stereo not shown) [Example 3.12],1200
9,CC(=O)NC(C)Cc1ccc(C#Cc2cccc(N(C)C)n2)cc1 (stereo not shown) [Example 3.13],1700
10,CC(=O)NC(C)Cc1ccc(C#Cc2nccs2)cc1 (stereo not shown) [Example 3.16],4700
11,COC(=O)c1ccc(C#Cc2ccc(CC(C)NC(C)=O)cc2)o1 (stereo not shown) [Example 3.17],880
12,CCOc1ccc(C#Cc2ccc(CC(C)NC(=O)C(C)O)cc2)cc1 (stereo not shown) [Example 4.5],1500
13,CCOc1ccc(C#Cc2ccc(CC(C)NC(=O)COC)cc2)cc1 (stereo not shown) [Example 4.6],970
14,CCOc1ccc(C#Cc2ccc(CC(C)NC(=O)CN(C)C)cc2)cc1 (stereo not shown) [Example 4.10],1100
15,CCOc1ccc(C#Cc2ccc(CC(C)NC(=O)CCOC)cc2)cc1 (stereo not shown) [Example 4.11],1400
16,CCOc1ccc(C#Cc2ccc(CC(C)NC(=O)C3(O)CC3)cc2)cc1 (stereo not shown) [Example 4.12],560
17,CCOc1ccc(C#Cc2ccc(CC(C)NC(=O)CCC#N)cc2)cc1 (stereo not shown) [Example 4.13],680
18,CCOc1ccc(C#Cc2ccc(CC(C)NC(=O)c3cncnc3)cc2)cc1 (stereo not shown) [Example 4.14],1200
19,CCOc1ccc(C#Cc2ccc(CC(C)NC(=O)CS(C)(=O)=O)cc2)cc1 (stereo not shown) [Example 4.15],780
20,CCOc1ccc(C#Cc2ccc(CC(C)NC(=O)c3cc[nH]n3)cc2)cc1 (stereo not shown) [Example 4.16],1600
21,CCOc1ccc(C#Cc2ccc(CC(C)NC(=O)c3ccccc3)cc2)cc1 (stereo not shown) [Example 4.19],2800
22,CCOc1ccc(C#Cc2ccc(CC(C)NC(=O)c3ccncc3)cc2)cc1 (stereo not shown) [Example 4.22],930
23,CCOc1ccc(C#Cc2ccc(CC(C)NC(=O)C(=O)CC)cc2)cc1 (stereo not shown) [Example 4.24],1000
24,CCCCC(=O)NC(C)Cc1ccc(C#Cc2ccc(OCC)cc2)cc1 (stereo not shown) [Example 4.25],540
25,CCOc1ccc(C#Cc2ccc(CC(C)NC(=O)CNC)cc2)cc1 (stereo not shown) [Example 4.29],2700
26,CCOc1ccc(C#Cc2ccc(CC(C)NC(=O)C(O)C(C)C)cc2)cc1 (stereo not shown) [Example 4.30],1700

row,SMILES,IC50 [nM]
1,CCOc1ccc(C#Cc2ccc(CC(C)NC(=O)CF)cc2)cc1 (stereo not shown) [Example 4.31],410
2,CCOc1ccc(C#Cc2ccc(CC(C)NC(=O)C3CNC3)cc2)cc1 (stereo not shown) [Example 4.34],600
3,CCOc1ccc(C#Cc2ccc(CC(C)NC(=O)C3CCCO3)cc2)cc1 (stereo not shown) [Example 4.37],900
4,C=CC(=O)NC(C)c1ccc(C#Cc2ccc(OCC)cc2)cc1 (stereo not shown) [Example 4.39],710
5,CCOc1ccc(C#Cc2ccc(C(C)NC(=O)C(C)O)cc2)cc1 (stereo not shown) [Example 4.40],3700
6,CCOc1ccc(C#Cc2ccc(C(C)NC(=O)C3CC3)cc2)cc1 (stereo not shown) [Example 4.41],2000
7,CCOc1ccc(C#Cc2ccc(C(C)NC(=O)CCO)cc2)cc1 (stereo not shown) [Example 4.43],11000
8,CCOc1ccc(C#Cc2ccc(C(C)NC(=O)C3(C)CC3)cc2)cc1 (stereo not shown) [Example 4.44],1500
9,CCOc1ccc(C#Cc2ccc(C(C)NC(=O)C(C)OCC(F)(F)F)cc2)cc1 (stereo not shown) [Example 4.46],8500
10,CCOc1ccc(C#Cc2ccc(C(C)NC(=O)c3ccccn3)cc2)cc1 (stereo not shown) [Example 4.47],2700
11,CCOc1ccc(C#Cc2ccc(C(C)NC(=O)CO)cc2)cc1 (stereo not shown) [Example 4.48],3900
12,CCOc1ccc(C#Cc2ccc(CC(C)NC(=O)C(C)(C)F)cc2)cc1 (stereo not shown) [Example 4.49],8700
13,CCOc1ccc(C#Cc2ccc(CC(C)NC(=O)[C@H](C)OC)cc2)cc1 (stereo partly shown) [Example 4.50],6300
14,CCOc1ccc(C#Cc2ccc(CC(C)NC(=O)c3c(C)noc3N)cc2)cc1 (stereo not shown) [Example 4.52],5100
15,CCOc1ccc(C#Cc2ccc(C(C)NC(=O)c3cocn3)cc2)cc1 (stereo not shown) [Example 4.54],30000
16,CCOc1ccc(C#Cc2ccc(CC(C)NC(=O)c3cocn3)cc2)cc1 (stereo not shown) [Example 4.56],5600
17,CCOc1ccc(C#Cc2ccc(CC(C)NC(=O)c3oc(C)nc3C)cc2)cc1 (stereo not shown) [Example 4.57],990
18,CCOc1ccc(C#Cc2ccc(CC(C)NC(=O)C3CCNC3=O)cc2)cc1 (stereo not shown) [Example 4.58],680
19,CCOc1ccc(C#Cc2ccc(CC(C)NC(=O)c3ncn[nH]3)cc2)cc1 (stereo not shown) [Example 4.60],24700
20,CCOc1ccc(C#Cc2ccc(CC(C)NC(=O)C(=O)N(C)C)cc2)cc1 (stereo not shown) [Example 4.61],10100
21,CCOc1ccc(C#Cc2ccc(CC(C)NC(=O)C3CC(=O)N(C)C3)cc2)cc1 (stereo not shown) [Example 4.62],3700
22,CCOc1ccc(C#Cc2ccc(CC(C)NC(=O)C3(C#N)CC3)cc2)cc1 (stereo not shown) [Example 4.63],920
23,CCOc1ccc(C#Cc2ccc(CC(C)NC(=O)C3CCC(=O)NC3)cc2)cc1 (stereo not shown) [Example 4.64],5100
24,CCOc1ccc(C#Cc2ccc(CC(C)NC(=O)c3ccon3)cc2)cc1 (stereo not shown) [Example 4.65],1100
25,CCOc1ccc(C#Cc2ccc(CC(C)NC(=O)c3cnc[nH]3)cc2)cc1 (stereo not shown) [Example 4.66],4700

# The remaining lines, values ahead:
row,IC50 [nM],SMILES
1,260,CC(=O)NC(C)Cc1ccc(C#Cc2ccnc(OCc3ccccc3)c2)cc1 (stereo not shown) [Example 3.9]
2,220,CC(=O)NC(C)Cc1ccc(C#Cc2ccc3c(c2)OCCO3)cc1 (stereo not shown) [Example 3.14]
3,350,COc1ccc(C#Cc2ccc(CC(C)NC(C)=O)cc2)c(Cl)c1 (stereo not shown) [Example 3.15]
4,210,"CCCC(=O)NC(C)Cc1ccc(C#Cc2ccc(OCC)cc2)cc1 (stereo not shown) [Example 4.1, N-(1-(4-((4-ethoxyphenyl)ethynyl)phenyl)propan-2-yl)butyramide]"
5,190,CCOc1ccc(C#Cc2ccc(CC(C)NC(=O)C(C)C)cc2)cc1 (stereo not shown) [Example 4.2]
6,220,C/C=C/C(=O)NC(C)Cc1ccc(C#Cc2ccc(OCC)cc2)cc1 (stereo not shown) [Example 4.3]
7,150,CCOc1ccc(C#Cc2ccc(CC(C)NC(=O)C3CC3)cc2)cc1 (stereo not shown) [Example 4.4]
8,120,CCOc1ccc(C#Cc2ccc(CC(C)NC(=O)CC)cc2)cc1 (stereo not shown) [Example 4.7]
9,460,C=CC(=O)NC(C)Cc1ccc(C#Cc2ccc(OCC)cc2)cc1 (stereo not shown) [Example 4.8]
10,400,CCOc1ccc(C#Cc2ccc(CC(C)NC(=O)CC#N)cc2)cc1 (stereo not shown) [Example 4.9]
11,470,CCOc1ccc(C#Cc2ccc(CC(C)NC(=O)C=C(C)C)cc2)cc1 (stereo not shown) [Example 4.17]
12,460,CCOc1ccc(C#Cc2ccc(CC(C)NC(=O)CCO)cc2)cc1 (stereo not shown) [Example 4.18]
13,180,CCOc1ccc(C#Cc2ccc(CC(C)NC(=O)C3CCC3)cc2)cc1 (stereo not shown) [Example 4.20]
14,140,CCOc1ccc(C#Cc2ccc(CC(C)NC(=O)C3(C)CC3)cc2)cc1 (stereo not shown) [Example 4.21]
15,310,CCOc1ccc(C#Cc2ccc(CC(C)NC(=O)CC(C)C)cc2)cc1 (stereo not shown) [Example 4.23]
16,230,CCOc1ccc(C#Cc2ccc(CC(C)NC(=O)C(F)F)cc2)cc1 (stereo not shown) [Example 4.26]
17,440,CCOc1ccc(C#Cc2ccc(CC(C)NC(=O)C3CNC(=O)C3)cc2)cc1 (stereo not shown) [Example 4.32]
18,490,CCOc1ccc(C#Cc2ccc(CC(C)NC(=O)C3CCOC3)cc2)cc1 (stereo not shown) [Example 4.33]
19,380,CCOc1ccc(C#Cc2ccc(CC(C)NC(=O)C3CC3C)cc2)cc1 (stereo not shown) [Example 4.35]
20,170,CCOc1ccc(C#Cc2ccc(CC(C)NC(=O)c3cnco3)cc2)cc1 (stereo not shown) [Example 4.38]
21,530,CCOc1ccc(C#Cc2ccc(C(C)NC(=O)c3cnco3)cc2)cc1 (stereo not shown) [Example 4.45]
22,510,CCOc1ccc(C#Cc2ccc(CC(C)NC(=O)C3(C)COC3)cc2)cc1 (stereo not shown) [Example 4.51]
23,370,CCOc1ccc(C#Cc2ccc(C(C)NC(=O)c3cncs3)cc2)cc1 (stereo not shown) [Example 4.53]
24,330,CCOc1ccc(C#Cc2ccc(C(C)NC(=O)c3cn[nH]c3)cc2)cc1 (stereo not shown) [Example 4.55]
25,110,CCOc1ccc(C#Cc2ccc(CC(C)NC(=O)c3ccco3)cc2)cc1 (stereo not shown) [Example 4.59]

# Source: patent US8835472B2, “Compounds, pharmaceutical compositions and uses thereof” (Boehringer Ingelheim International GmbH, priority 2010, dated 2014)
